Data taken from ChEMBL document CHEMBL4665817, “Immobilized Metal Affinity Chromatography as a Drug Discovery Platform for Metalloenzyme Inhibitors” (J Med Chem, 2020).
Calls of active or inactive are those of the source. The calls are words filed in the database; no cut-off is given here.

How the values were obtained:
Details in all cases: dose 2.55 µmol
[1] = Binding affinity to cupric ion assessed as performance ratio ratio by measuring product of accounting ratio and retention ratio at 2.55 umol by immobilized metal-ion affinity chromatography
[2] = Binding affinity to Nickel cation assessed as performance ratio ratio by measuring product of accounting ratio and retention ratio at 2.55 umol by immobilized metal-ion affinity chromatography
[3] = Binding affinity to zinc ion assessed as accounting ratio by measuring total compound detected/total compound adsorbed at 2.55 umol by immobilized metal-ion affinity chromatography
[4] = Binding affinity to Gallium ion assessed as retention ratio by measuring compound detected in elution fraction/total compound detected at 2.55 umol by immobilized metal-ion affinity chromatography
[5] = Binding affinity to Gallium ion assessed as performance ratio ratio by measuring product of accounting ratio and retention ratio at 2.55 umol by immobilized metal-ion affinity chromatography
[6] = Binding affinity to cupric ion assessed as retention ratio by measuring compound detected in elution fraction/total compound detected at 2.55 umol by immobilized metal-ion affinity chromatography
[7] = Binding affinity to Zinc ion assessed as retention ratio by measuring compound detected in elution fraction/total compound detected at 2.55 umol by immobilized metal-ion affinity chromatography
[8] = Binding affinity to gallium ion assessed as accounting ratio by measuring total compound detected/total compound adsorbed at 2.55 umol by immobilized metal-ion affinity chromatography
[9] = Binding affinity to Nickel cation assessed as retention ratio by measuring compound detected in elution fraction/total compound detected at 2.55 umol by immobilized metal-ion affinity chromatography
[10] = Binding affinity to ferric ion assessed as accounting ratio by measuring total compound detected/total compound adsorbed at 2.55 umol by immobilized metal-ion affinity chromatography
[11] = Binding affinity to cupric ion assessed as accounting ratio by measuring total compound detected/total compound adsorbed at 2.55 umol by immobilized metal-ion affinity chromatography
[12] = Binding affinity to Ferric ion assessed as performance ratio ratio by measuring product of accounting ratio and retention ratio at 2.55 umol by immobilized metal-ion affinity chromatography
[13] = Binding affinity to Nickel cation assessed as accounting ratio by measuring total compound detected/total compound adsorbed at 2.55 umol by immobilized metal-ion affinity chromatography
[14] = Binding affinity to Ferric ion assessed as retention ratio by measuring compound detected in elution fraction/total compound detected at 2.55 umol by immobilized metal-ion affinity chromatography
[15] = Binding affinity to Zinc ion assessed as performance ratio ratio by measuring product of accounting ratio and retention ratio at 2.55 umol by immobilized metal-ion affinity chromatography
[16] = Binding affinity to Zinc ion at 2.55 umol in presence of DTT by immobilized metal-ion affinity chromatography

SMILES	Ratio [1]	Ratio [2]	Ratio [3]	Ratio [4]	Ratio [5]	Ratio [6]	Ratio [7]	Ratio [8]	Ratio [9]	Ratio [10]	Ratio [11]	Ratio [12]	Ratio [13]	Ratio [14]	Ratio [15]	Activity [16]
O=C(N[C@H]1CCS[C@H]2CCC[C@@H](C(=O)O)N2C1=O)[C@@H](S)Cc1ccccc1	0	0.19	1.43	0	0	0	1	0	1	0	0	0	0.19	0	1.43	
C[C@H](CSSC[C@@H](C)C(=O)N1CCC[C@H]1C(=O)O)C(=O)N1CCCC1C(=O)O (stereo partly drawn)																inactive
COc1c(N2C[C@@H]3CCCN[C@@H]3C2)c(F)cc2c(=O)c(C(=O)O)cn(C3CC3)c12	0.24	0.89	1.05	0.14	0.02	0.95	1	0.16	1	0.21	0.25	0.15	0.89	0.73	1.05	
Cc1[nH]c2ccccc2c1CCNCc1ccc(/C=C/C(=O)NO)cc1	0.25	0.84	0.7	0	0	1	1	0	1	0.03	0.25	0.03	0.84	1	0.7	
C[C@H](CSS[C@@H](Cc1ccccc1)C(=O)N[C@H]1CCS[C@H]2CCC[C@@H](C(=O)O)N2C1=O)C(=O)N1CCC[C@H]1C(=O)O																inactive
C[C@H](CS)C(=O)N1CCC[C@H]1C(=O)O	0	0	1.17	0	0	0	1	0	0	0	0	0	0	0	1.17	
Nc1ccccc1NC(=O)c1ccc(CNC(=O)OCc2cccnc2)cc1	0.01	0.21	0.83	0.01	0.01	0.02	0.01	0.98	0.6	0.99	0.59	0	0.35	0	0.01	
O=C(CCCCCCC(=O)Nc1ccccc1)NO	0.08	1.14	1.19	1	0.41	0.61	1	0.41	1	0	0.14	0	1.14	0	1.19	
CC1(C)Cc2c(-c3ccccc3)c(-c3ccc(Cl)cc3)c(CC(=O)O)n2C1	0	0.03	1.05	0.06	0.06	0	0.03	1.08	0.03	0.97	1.03	0.37	1.03	0.39	0.03	
Nc1ccc(C(=O)O)c(O)c1	0	0	0.87	0.74	0.52	0	0	0.69	0	0.15	0.87	0.08	0.83	0.51	0	
O=C(N[C@H]1CCS[C@H]2CCC[C@@H](C(=O)O)N2C1=O)[C@H](Cc1ccccc1)SS[C@@H](Cc1ccccc1)C(=O)N[C@H]1CCS[C@H]2CCC[C@@H](C(=O)O)N2C1=O																inactive
C[C@H](CSC(=O)c1ccccc1)C(=O)N1C[C@@H](Sc2ccccc2)C[C@H]1C(=O)O	0	0.01	1.4	0.01	0.01	0	0.01	1.43	0.01	1.46	1.51	0	1.29	0	0.01	
Cc1ccc(Cl)c(Nc2ccccc2C(=O)O)c1Cl	0	0	0.97	0	0	0	0	1.01	0	0.99	1.05	0	0.96	0	0	
O=C(O)c1cc(/N=N/c2ccc(S(=O)(=O)Nc3ccccn3)cc2)ccc1O	0.63	0.89	0.61	0.99	0.82	0.63	0.79	0.83	1	0.79	1	0.79	0.89	1	0.48	
C[C@H](N[C@@H](CCc1ccccc1)C(=O)O)C(=O)N1CCC[C@H]1C(=O)O	0	0	0.98	0	0	0	0.01	1	0	1.02	0.99	0	0.81	0	0.01	
O=c1cccccc1O	1.26	0.7	0.97	0	0	1	1	0	1	0	1.26	0	0.7	0	0.97	
CC(=O)Nc1ccc(C(=O)Nc2ccccc2N)cc1	0	0.01	1.01	0	0	0	0	0.99	0.01	1.01	0.99	0	1	0	0	
O=C(/C=C/c1cccc(S(=O)(=O)Nc2ccccc2)c1)NO	0.13	1.08	1.21	1	0.23	1	1	0.23	1	0	0.13	0	1.08	0	1.21	
NCCCC[C@H](N[C@@H](CCc1ccccc1)C(=O)O)C(=O)N1CCC[C@H]1C(=O)O	0	0	0.89	0	0	0	0	0.93	0	0.9	0.88	0	0.72	0	0	
